Assay results taken from the CheMixHub viscosity set.
Where “and” joins values, the source holds several entries; their conditions need not be identical. Equal values may be shown once.

Assay: xn = mol fraction of the nth substance listed

CCCC(=O)[O-].OCC[NH2+]CCO + CC(=O)O.NCCO
viscosity [mPa·s], 101.3 kPa
Conditions | x2 = 0.1516 | x2 = 0.2854 | x2 = 0.4059 | x2 = 0.5163 | x2 = 0.6146 | x2 = 0.7052 | x2 = 0.7885 | x2 = 0.8646 | x2 = 0.9348
293.15 K | 1991 | 2150 | 2309 | 2468 | 2628 | 2787 | 2946 | 3105 | 3264
298.15 K | 1330 | 1434 | 1538 | 1642 | 1746 | 1850 | 1955 | 2059 | 2163
303.15 K | 906.1 | 972.3 | 1039 | 1105 | 1171 | 1237 | 1303 | 1370 | 1436
308.15 K | 631.9 | 675.2 | 718.4 | 761.7 | 804.9 | 848.2 | 891.4 | 934.7 | 978
313.15 K | 450.1 | 479.1 | 508.1 | 537.1 | 566.1 | 595.1 | 624.1 | 653.1 | 682.1
318.15 K | 327 | 347 | 366.9 | 386.9 | 406.8 | 426.8 | 446.7 | 466.7 | 486.6
323.15 K | 242 | 256 | 270.1 | 284.1 | 298.1 | 312.2 | 326.2 | 340.2 | 354.3

COc1ccccc1 + CC(C)(C)O
viscosity [mPa·s], 100.33 kPa
Conditions | x1 = 0.1 | x1 = 0.1999 | x1 = 0.3002 | x1 = 0.4001 | x1 = 0.5 | x1 = 0.6001 | x1 = 0.6998 | x1 = 0.8001 | x1 = 0.9001
303.15 K | 2.101 | 1.758 | 1.484 | 1.272 | 1.143 | 1.011 | 0.954 | 0.928 | 0.919
313.15 K | 1.585 | 1.29 | 1.099 | 1.002 | 0.915 | 0.853 | 0.825 | 0.808 | 0.798
323.15 K | 1.222 | 1.022 | 0.887 | 0.815 | 0.773 | 0.743 | 0.722 | 0.711 | 0.701

CC1COC(=O)O1 (stereo unspecified) + CC(C)=O
303.15 K, 101.3 kPa
Conditions | viscosity [mPa·s]
x1 = 0.088 | 0.3518
x1 = 0.1784 | 0.4187
x1 = 0.2713 | 0.5016
x1 = 0.3668 | 0.6038
x1 = 0.4647 | 0.7316
x1 = 0.5657 | 0.8959
x1 = 0.6697 | 1.104
x1 = 0.7768 | 1.371
x1 = 0.8864 | 1.71

c1ccc2ccccc2c1 + CC(C)=O
viscosity [mPa·s], 101 kPa
Conditions | 298.15 K | 303.15 K | 308.15 K | 313.15 K
x1 = 0.1688 | 0.487 | 0.464 | 0.4428 | 0.4207
x1 = 0.2356 | 0.5618 | 0.5296 | 0.5029 | 0.4781

C1CCOC1 + CC(C)CC(C)(C)C
viscosity [mPa·s], 101 kPa
Conditions | x1 = 0.1001 | x1 = 0.2 | x1 = 0.3 | x1 = 0.4 | x1 = 0.5 | x1 = 0.6 | x1 = 0.7 | x1 = 0.8 | x1 = 0.9
298.15 K | 0.479 | 0.477 | 0.475 | 0.474 | 0.473 | 0.472 | 0.472 | 0.471 | 0.471
308.15 K | 0.433 | 0.432 | 0.432 | 0.431 | 0.431 | 0.432 | 0.432 | 0.432 | 0.432

CC(C)=O + CC(C)CC(C)(C)C
298.15 K, 101 kPa
Conditions | viscosity [mPa·s]
x1 = 0.0643 | 0.456
x1 = 0.1001 | 0.448
x1 = 0.2004 | 0.428
x1 = 0.2297 | 0.422
x1 = 0.2934 | 0.417
x1 = 0.3408 | 0.404
x1 = 0.3994 | 0.395
x1 = 0.5006 | 0.378
x1 = 0.5566 | 0.367
x1 = 0.5927 | 0.36
x1 = 0.7032 | 0.341
x1 = 0.7941 | 0.327
x1 = 0.8898 | 0.314

COc1ccccc1 + CC(C)CO
viscosity [mPa·s], 101.33 kPa
Conditions | x1 = 0.1001 | x1 = 0.2001 | x1 = 0.2999 | x1 = 0.4001 | x1 = 0.5 | x1 = 0.6001 | x1 = 0.7 | x1 = 0.8001 | x1 = 0.9002
303.15 K | 1.789 | 1.326 | 1.157 | 1.069 | 1.011 | 0.969 | 0.951 | 0.934 | 0.921
313.15 K | 1.355 | 1.064 | 0.933 | 0.862 | 0.845 | 0.831 | 0.816 | 0.803 | 0.792
323.15 K | 1.063 | 0.829 | 0.768 | 0.743 | 0.736 | 0.731 | 0.718 | 0.708 | 0.697

C1CCOC1 + CC(C)O
101 kPa
Conditions | viscosity
298.15 K, x1 = 0.05 | 1.706 mPa·s
298.15 K, x1 = 0.1 | 1.445 mPa·s
298.15 K, x1 = 0.15 | 1.248 mPa·s
298.15 K, x1 = 0.2001 | 1.113 mPa·s
298.15 K, x1 = 0.25 | 0.988 mPa·s
298.15 K, x1 = 0.3 | 0.896 mPa·s
298.15 K, x1 = 0.35 | 0.812 mPa·s
298.15 K, x1 = 0.4 | 0.752 mPa·s
298.15 K, x1 = 0.45 | 0.703 mPa·s
298.15 K, x1 = 0.5 | 0.659 mPa·s and 0.6917 mPa·s
298.15 K, x1 = 0.55 | 0.623 mPa·s
298.15 K, x1 = 0.6 | 0.594 mPa·s
298.15 K, x1 = 0.65 | 0.567 mPa·s
298.15 K, x1 = 0.7 | 0.545 mPa·s
298.15 K, x1 = 0.75 | 0.526 mPa·s
298.15 K, x1 = 0.8 | 0.511 mPa·s
298.15 K, x1 = 0.85 | 0.497 mPa·s
298.15 K, x1 = 0.9 | 0.488 mPa·s
298.15 K, x1 = 0.95 | 0.48 mPa·s
298.15 K, x2 = 0.1211 | 0.49 mPa·s
298.15 K, x2 = 0.2273 | 0.525 mPa·s
298.15 K, x2 = 0.3055 | 0.556 mPa·s
298.15 K, x2 = 0.3798 | 0.587 mPa·s
298.15 K, x2 = 0.4846 | 0.654 mPa·s
298.15 K, x2 = 0.5812 | 0.745 mPa·s
298.15 K, x2 = 0.6948 | 0.899 mPa·s
298.15 K, x2 = 0.7237 | 0.963 mPa·s
298.15 K, x2 = 0.8181 | 1.256 mPa·s
298.15 K, x2 = 0.9031 | 1.571 mPa·s
298.15 K, x2 = 0.955 | 1.803 mPa·s
303 K, x1 = 0.0983 | 1.07 mPa·s
303 K, x1 = 0.2085 | 0.86 mPa·s
303 K, x1 = 0.2911 | 0.71 mPa·s
303 K, x1 = 0.3728 | 0.58 mPa·s
303 K, x1 = 0.5014 | 0.56 mPa·s
303 K, x1 = 0.5976 | 0.54 mPa·s
303 K, x1 = 0.7483 | 0.48 mPa·s
303 K, x1 = 0.8001 | 0.47 mPa·s
303 K, x1 = 0.8939 | 0.45 mPa·s
308.15 K, x1 = 0.05 | 1.313 mPa·s
308.15 K, x1 = 0.1 | 1.142 mPa·s
308.15 K, x1 = 0.15 | 1.009 mPa·s
308.15 K, x1 = 0.2001 | 0.909 mPa·s
308.15 K, x1 = 0.25 | 0.824 mPa·s
308.15 K, x1 = 0.3 | 0.755 mPa·s
308.15 K, x1 = 0.35 | 0.697 mPa·s
308.15 K, x1 = 0.4 | 0.646 mPa·s
308.15 K, x1 = 0.45 | 0.606 mPa·s
308.15 K, x1 = 0.5 | 0.576 mPa·s
308.15 K, x1 = 0.55 | 0.549 mPa·s
308.15 K, x1 = 0.6 | 0.526 mPa·s
308.15 K, x1 = 0.65 | 0.507 mPa·s
308.15 K, x1 = 0.7 | 0.489 mPa·s
308.15 K, x1 = 0.75 | 0.474 mPa·s
308.15 K, x1 = 0.8 | 0.461 mPa·s
308.15 K, x1 = 0.85 | 0.452 mPa·s
308.15 K, x1 = 0.9 | 0.444 mPa·s
308.15 K, x1 = 0.95 | 0.44 mPa·s
313 K, x1 = 0.0983 | 0.86 mPa·s
313 K, x1 = 0.2085 | 0.7 mPa·s
313 K, x1 = 0.2911 | 0.61 mPa·s
313 K, x1 = 0.3728 | 0.54 mPa·s
313 K, x1 = 0.5014 | 0.48 mPa·s
313 K, x1 = 0.5976 | 0.46 mPa·s
313 K, x1 = 0.7483 | 0.45 mPa·s
313 K, x1 = 0.8001 | 0.43 mPa·s
313 K, x1 = 0.8939 | 0.43 mPa·s

CC(=O)Oc1ccccc1C(=O)O + CC(C)O
viscosity [mPa·s], 101 kPa
Conditions | x1 = 0.00057 | x1 = 0.000763 | x1 = 0.000955 | x1 = 0.00115 | x1 = 0.00134 | x1 = 0.00153 | x1 = 0.00191
293.15 K | 2.382 | 2.382 | 2.383 | 2.384 | 2.385 | 2.386 | 2.389
298.15 K | 2.045 | 2.045 | 2.046 | 2.046 | 2.047 | 2.048 | 2.049
303.15 K | 1.763 | 1.764 | 1.764 | 1.765 | 1.766 | 1.767 | 1.768
308.15 K | 1.524 | 1.524 | 1.525 | 1.525 | 1.525 | 1.526 | 1.526
310.15 K | 1.437 | 1.438 | 1.438 | 1.438 | 1.439 | 1.439 | 1.44
313.15 K | 1.392 | 1.392 | 1.393 | 1.393 | 1.394 | 1.394 | 1.395

CC(C)=O + CC(C)O
298.15 K, 101 kPa
Conditions | viscosity [mPa·s]
x2 = 0.152 | 0.347
x2 = 0.161 | 0.349
x2 = 0.292 | 0.389
x2 = 0.302 | 0.395
x2 = 0.452 | 0.486
x2 = 0.486 | 0.507
x2 = 0.488 | 0.513
x2 = 0.661 | 0.703
x2 = 0.812 | 1.071
x2 = 0.849 | 1.187

CC1COC(=O)O1 (stereo unspecified) + CC(C)O
viscosity [mPa·s], 101 kPa
Conditions | x1 = 0.0614 | x1 = 0.1283 | x1 = 0.2015 | x1 = 0.2818 | x1 = 0.3706 | x1 = 0.469 | x1 = 0.5787 | x1 = 0.7019 | x1 = 0.8412
298.15 K | 1.84 | 1.74 | 1.68 | 1.64 | 1.64 | 1.65 | 1.7 | 1.8 | 2.04
303.15 K | 1.6 | 1.53 | 1.46 | 1.44 | 1.45 | 1.48 | 1.54 | 1.65 | 1.85
308.15 K | 1.44 | 1.37 | 1.31 | 1.29 | 1.29 | 1.32 | 1.39 | 1.49 | 1.68
